According to patent US10815297B2, “Antagonists of IL17C for the treatment of inflammatory disorders” (MorphoSys AG, priority 2011, dated 2020):

Columns and labels:
[1] = test system: TS-exposed mice (C57BL/6J), pulmonary inflammation; assay: Tobacco smoke model, cells recovered in bronchoalveolar lavage; format: in vivo, mouse
Description: The response consisted of significant increases in the numbers of macrophages, epithelial cells, neutrophils and lymphocytes recovered in BAL.
Vehicle (PBS), MOR12743 and MOR03207 were administered i.p., 1 h prior to TS-exposure on days 1, 4, 7 and 10 of the study. Roflumilast was administered p.o., 1 h prior to each TS-exposure.
In this exposure protocol, mice were exposed in groups of 5 in clear polycarbonate chambers (27 cm×16 cm×12 cm). The TS from ‘Marlboro 100’ cigarettes was allowed to enter the exposure chambers at a flow rate of 100 mL/min. In order to minimise any potential problems caused by repeated exposure to a high level of TS, the exposure period to TS was increased initially from 25 minutes at the start of the study (day 1) to a maximum of 45 minutes on day 3. The exposure schedule used in this study was as follows:
The trachea was cannulated using a 10 mm long Luer fitting stainless steel cannula. Phosphate buffered saline (PBS) was used as the lavage fluid. A volume of 0.4 mL was gently instilled and withdrawn 3 times using a 1 mL syringe and then placed in an Eppendorf tube and kept on ice prior to subsequent determinations.
Lavage fluid was separated from cells by centrifugation (6 min at 3400 rpm, RCF=3070×g—‘Eppendorf Mini Spin’) and the supernatant decanted and frozen for possible subsequent analysis. The cell pellet was re-suspended in a known volume of PBS and total cell numbers calculated by counting a stained (Turks stain) aliquot under a microscope using a haemocytometer.
The residual cell pellet was diluted to approximately 10^5 cells per mL. A volume of 500 μl was placed in the funnel of a cytospin slide and centrifuged for 8 min at 800 rpm, RCF=72.26×g (Shandon Cytospin 3). The slide was air-dried and stained using Wrights/Giemsa stain as per the proprietary instructions. When dried and cover-slipped, differential cell-counts were performed using light microscopy. Approximately 400 cells were counted for each slide. Cells were identified using standard morphometric techniques.
In this study, 4 groups of mice were subjected to daily TS-exposure for 11 days and were sacrificed on the 12th day, 24 h after the final TS-exposure. Three groups received either vehicle (D-PBS), MOR12743 or MOR03207, i.p., 1 h prior to TS-exposure on days 1, 4, 7 and 10 of the study. One group received Roflumilast, p.o., 1 h prior to each TS-exposure. A further group was exposed to air for 11 consecutive days and sacrificed on the 12th day, 24 h after the final air-exposure. This group received vehicle (D-PBS), i.p., 1 h prior to exposure on days 1, 4, 7 and 10 of the study. For all groups n=10.
All mice were killed on day 12, by intra-peritoneal barbiturate anaesthetic overdose, 24 h after final exposure to air or TS. A blood sample was taken over heparin from the sub-clavian vein and the plasma separated by centrifugation and stored at −40° C. A BAL was performed using 0.4 mL of phosphate buffered saline (PBS). Cells recovered from the BAL were used for the total cell and differential cell counts. The BAL supernatants and remaining cell pellet were stored at −40° C. and −80° C. respectively for possible future analysis. Following BAL, the cannula was left tied in place. The heart and lungs were removed after gently opening the thorax and cutting down either side of the sternum and ribs. The left lobe was tied off, removed, snap-frozen and stored at −80° C. The right lobe was inflated with 10% phosphate buffered formalin (PBF) to a pressure of 18 cm of PBF for 20 minutes. The trachea was then ligated below the cannula and the cannula removed. The heart, lung & trachea were immersed in PBF.
The data were therefore initially subjected to a one-way analysis of variance test (ANOVA), followed by a Bonferroni correction for multiple comparisons in order to test for statistically significant differences between treatment groups. A “p” value of <0.05 was considered to be statistically significant. […]

[2] = test system: mouse CIA model (DBA1/J mice); assay: Mouse collagen induced arthritis (CIA) model, therapeutic protocol; format: in vivo; details: 10 mg/kg, 3x week, i.p., day 31 to day 46
Description: DBA1/J mice (male, 6-7 weeks old, approx 20 gram) were obtained from Centre d'Elevage Regional Janvier (Laval, France). Mice were kept on a 12 hr light/dark cycle (0700-1900). Temperature was maintained at 22° C., and food and water were provided ad libitum.
One day before the experiment, CII solution (2 mg/mL) was prepared with 0.05 M acetic acid and stored at 4° C. Just before the immunization, equal volumes of adjuvant […] and CII were mixed by a homogenizer in a pre-cooled glass bottle in an ice water bath. Extra adjuvant and prolonged homogenization may be required if an emulsion is not formed. 0.1 mL of the emulsion was injected intradermally at the base of the tail of each mouse on day 1, a second booster intradermal injection (CII solution at 2 mg/mL in […] 0.1 mLemulsion) was performed on day 21. This immunization method was modified from published methods (Brand et al, 2007, Collagen-induced arthritis. Nature Protocols; vol 2 (5): 1269-1275; Lin et al., 2007, Anti-rheumatic activities of histone deacetylase (HDAC) inhibitors in vivo in collagen-induced arthritis in rodents. Br J Pharmacol. April; 150 (7):829-31).
The therapeutic effects of the antibodies were tested in the mouse CIA model. Mice were randomly divided into equal groups and each group contained 10 mice. All mice were immunized on day 1 and boosted on day 21. Therapeutic dosing lasted from day 31 to day 46. The negative control group was treated with vehicle (PBS) and the positive control group with Enbrel (10 mg/kg, 3× week, i.p.). An antibody of interest was tested at 10 mg/kg, i.p. 3 times per week.
Anti-IL17C antibodies were administered i.p. three times a week at 10 mg/kg. […]
Arthritis was scored according to the method of Khachigian 2006 (Collagen antibody-induced arthritis. (2006) Nature Protocols 1, 2512-6), Lin et al 2007 (supra); Nishida et al. 2004 (Histone deacetylase inhibitor suppression of autoantibody-mediated arthritis in mice via regulation of p16INK4a and p21(WAF1/Cip1) expression. Arthritis Rheum. 10: 3365-76); and Brand et al. 2007 (supra). […]

[3] = molecular target: T1, mouse IL17C (Mus musculus, UniProt Q8K4C5); assay: ELISA titration on mouse IL17C (EC50 determination); format: binding
T1 construct: purchased R&D Systems 2306-ML/CF
T1 sequence (Q8K4C5 17-194): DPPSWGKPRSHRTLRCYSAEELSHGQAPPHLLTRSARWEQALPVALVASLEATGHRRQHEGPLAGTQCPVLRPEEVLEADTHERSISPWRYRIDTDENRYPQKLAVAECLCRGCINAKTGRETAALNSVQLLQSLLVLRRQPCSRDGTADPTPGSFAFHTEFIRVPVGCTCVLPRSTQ
Description: All purified chimeric human-mouse chimeric IgG2a antibodies were titrated on mouse IL17C for EC50 determination in ELISA starting with a concentration of 100 nM. EC50 values on mouse IL17C were determined in 1 to 3 independent experiments.

## O=C(Nc1c(Cl)cncc1Cl)c1ccc(OC(F)F)c(OCC2CC2)c1 [Roflumilast, reference compound]
[1]; 5 mg/kg p.o. q.d.
  Inhibition of epithelial cells in BAL: 50%
  Inhibition of lymphocytes in BAL: 54%
  Inhibition of macrophages in BAL: 13%
  Inhibition of neutrophils in BAL: 56%
[1]; 5 mg/kg p.o. q.d., 1 h prior to each TS-exposure
  Inhibition of total cells in BAL: 32%
[1]; 5 mg/kg p.o., 1 h prior to each TS-exposure
  inhibition of total cell numbers recovered in the BAL (in words): significantly inhibited

## etanercept [Enbrel, reference compound]
[2]
  inhibition of inflammation / disease progression (clinical score): did inhibit

B1: MOR12755: anti-mouse IL17C HuCAL antibody; CDRs SEQ ID NO: 101-106, VL 107, VH 108 (antibody, V domains shown)
VH: QVQLQQSGPGLVKPSQTLSLTCAISGDSVSSNSAAWNWIRQSPSRGLEWLGKTYYRSTWSNDYAESVKSRITINPDTSKNQFSLQLNSVTPEDTAVYYCAREMDSLTRSASSIAFDYWGQGTLVTVSS
VL: DIELTQPPSVSVSPGQTASITCSGDNLREHYVHWYQQKPGQAPVLVIYDDTERPSGIPERFSGSNSGNTATLTISGTQAEDEADYYCATRDWSNVVFGGGTKLTVLGQ
modifications: VH; VL
[3]
  binding activity with purified IgG2a: could not be confirmed

B2: MOR12756: anti-mouse IL17C HuCAL antibody; CDRs SEQ ID NO: 111-116, VL 117, VH 118 (antibody, V domains shown)
VH: QVQLQQSGPGLVKPSQTLSLTCAISGDSVSDNSVAWNWIRQSPSRGLEWLGRIYYRSKWYNDYAVSVKSRITINPDTSKNQFSLQLNSVTPEDTAVYYCAREVLLFPARSYGTGMDVWGQGTLVTVSS
VL: DIELTQPPSVSVSPGQTASITCSGDNLPSKYVHWYQQKPGQAPVLVIYDDNERPSGIPERFSGSNSGNTATLTISGTQAEDEADYYCGVADMPRQMKVFGGGTKLTVLGQ
modifications: VH; VL
[3]
  binding activity with purified IgG2a: could not be confirmed

B3: MOR12757: anti-mouse IL17C HuCAL antibody; CDRs SEQ ID NO: 121-126, VL 127, VH 128 (antibody, V domains shown)
VH: EVQLLESGGGLVQPGGSLRLSCAASGFTFSSYAMSWVRQAPGKGLEWVSFISSGGSETFYADSVKGRFTISRDNSKNTLYLQMNSLRAEDTAVYYCARVSYIYYYSWVLFDVWGQGTLVTVSS
VL: DIQMTQSPSSLSASVGDRVTITCRASQGIGTALNWYQQKPGKAPKLLIYDVSSLQSGVPSRFSGSGSGTDFTLTISSLQPEDFATYYCQQGLFLPFTFGQGTKVEIKRT
modifications: VH; VL
[3]
  binding activity with purified IgG2a: could not be confirmed

B4: MOR12758: anti-mouse IL17C HuCAL antibody; CDRs SEQ ID NO: 131-136, VL 137, VH 138 (antibody, V domains shown)
VH: EVQLVQSGAEVKKPGESLKISCKGSGYSFTDYWISWVRQMPGKGLEWMGAIDPTDSYTRYSPSFQGQVTISADKSISTAYLQWSSLKASDTAMYYCARWYTSHPYYEGRYPMDVWGQGTLVTVSS
VL: DIALTQPASVSGSPGQSITISCTGTSSDVGHYNYVSWYQQHPGKAPKLMIYGVTKRPSGVSNRFSGSKSGNTASLTISGLQAEDEADYYCASADEWPTLHVFGGGTKLTVLGQ
modifications: VH; VL
[3]
  binding activity with purified IgG2a: could not be confirmed
